Consider 1 compound from paper PMC10067442, “In vivo quantitative high-throughput screening for drug discovery and comparative toxicology” (Disease Models & Mechanisms, 2023).

Like-named read-outs stand apart in the source and are kept apart here.

Experiment [1] relates to C. elegans strain PE254. In words: C. elegans LSC qHTS viability assay, Anti-Infectives library primary screen (BG-fed, 384-well). The format is in vivo, Caenorhabditis elegans. As to conditions: Caenorhabditis elegans, read-out: Treatment day, EC50 (GFP area). On the procedure: Levamisole, ivermectin and albendazole were purchased from Sigma-Aldrich. Stock solutions of all compounds were prepared at 10 mM in DMSO, and ivermectin was diluted to a 10 µM working dilution in DMSO. […] Of these, 284 (38%) are approved for clinical use in the United States, 32 (4%) were previously marketed for use in the United States, and 62 (8%) are used clinically outside of the United States. […] DMSO stock solutions of were arrayed in Echo-qualified 384-well cyclic olefin copolymer plates (Labcyte) in qHTS inter-plate dilution with seven concentrations, 1:5 dilution, resulting in a final concentration range of 2.5–20 mM high concentration titrated to 160 nM to 1.28 µM low concentration ([Yasgar et al., 2008]). ‘Assay-ready’ plates were prepared in 384-well uClear microtiter plates (Greiner BioOne), with compounds acoustically dispensed at 250 nl per well with an Echo 555 in the above inter-plate titration array. Two plates with DMSO added across the compound field at the same volume were prepared as screening controls (‘uniformity plates’). DMSO vehicle control was added to every well of column 1, and levamisole cytotoxicity control was added at a high concentration of 10 mM in wells 1–8 and titrated 1:3, starting at a high concentration of 10 mM to 4.57 µM in wells 9–16 of column 2 of every plate. Additionally, ivermectin, levamisol and albendazole were plated as internal controls on one assay plate in 16-point, 1:2 titration down six replicate columns per compound, starting at a high concentration of 10 µM (ivermectin) or 10 mM (levamisole and albendazole). Assay-ready plates were sealed and frozen at −80°C until use.
C. elegans strain PE254 were collected from 12 NGM plates as above, transferred to 250 ml S medium supplemented with OP50 E. coli pellet collected from 2 l overnight culture, and grown for 5 days at 21°C with vigorous shaking in an Incu-Shaker Mini Shaking Incubator (Benchmark Scientific, Inc.). Eggs were axenized as above and hatched overnight in M9 buffer at 21°C and shaken at 65 rpm. Assay ready plates were thawed and allowed to equilibrate to ambient temperature. BGs in S medium (30 µl/well) at an OD600=0.85 were manually added across plates with a Capp pipette. Synchronized L1 worms from above were collected, diluted and plated at ten worms/30 µl/well with a Capp pipette into assay-ready microtiter plates pre-plated with BGs and compounds (240-fold dilution). […] No ethical approval or guidance is needed for working with nematodes.
Data from the Anti-Infectives screen were normalized by plate to corresponding intra-plate controls as previously described ([Inglese et al., 2006]). Assay statistics were calculated using the same respective controls. Total object ‘GFP’ area (µm^2) and number of worms were normalized to the average signal of DMSO-treated wells as zero percent neutral control, and the average signal of 41.7 µM levamisole-treated wells as −100% activity. In-house software was used to fit the resulting inter-plate titration data to the standard Hill equation, and concentration–response curves were classified by activity as previously described ([Southall et al., 2009]). Curve fits assignments of −1.1, −1.2, −2.1, −2.2 and −3 were considered active and visually confirmed.
Background: qHTS replaces the single test concentration by a dilution series.

In experiment [2] the test system is C. elegans strain PE254. The experiment can be described thus: 384-well LSC C. elegans viability assay, life-stage sorted worms on BGs or OP50 live bacteria (assay development). The format is in vivo, Caenorhabditis elegans. Particulars: worms grown on BGs; as early as day 1 for L4 and adult worms, by day 2 for most life stages.
Protocol: Strain PE254 worms were collected from eight NGM plates as above. The mixed population of C. elegans was resuspended in 30 ml 1× S basal buffer and plated at ten GFP worms per well of each life stage into respective wells of 384-well uClear microtiter plates with the COPAS biosorter run with the calibration protocol and settings from above. E. coli BGs diluted to OD600=0.6 or OP50 live bacteria diluted to OD600=0.05, 0.10, 0.15 or 0.2 in S medium were added to respective plates at 30 μl per well manually with a Capp pipette (BioVentures, Inc.). […] Plates were covered with a Breath-Easy seal (Thermo Fisher Scientific) and weighted metal lids with gas exchange pores (Fujifilm Wako Automation Corp.). Worms were grown in the presence of compound or DMSO for 7 days at 21°C and 65 rpm in an Incu-Shaker (Benchmark Scientific). Worms were imaged every 24–72 h on an Acumen eX3 laser scanning cytometer (STP Labtech). Plates were read with default reader settings, with scan 1 488 nm laser, green (FL-2) detection channel, 400 voltage, sensitivity of 2 and triggered in the green PMT. Green objects detected by the reader were identified as worms based on the filtered FL-2 object parameters perimeter (100-2200), area (1000-180,000), and peak intensity (150-1500). Viability was monitored as an increase in GFP fluorescence quantified as total number and total object area (µm^2) of FL-2 filtered objects per well. LSC data were collected using cellista 4 (version 4.3.4.0, STP Labtech).
Concentration–response curves for average total filtered FL-2 object area (‘GFP area’) and total filtered FL-2 number of objects (‘number of worms’) for each respective compound were fit with the nonlinear regression log (agonist) versus response–variable slope (four parameters) algorithm in Prism (GraphPad Software). Hillslope and/or EC50 constraints were applied as needed to all life stages per compound across the 7-day time course, and EC50 values were calculated. […] (3) [drawing 3] where σ is the mean signal and µ is the standard deviation for the treated (p) or neutral (n) controls.
A further experiment concerns C. elegans. Also noted: method as in Sant'anna et al., 2013. As to conditions: all life stages, post 7-day treatment; ref Sant'anna et al., 2013; read-out: EC50 (toxic); cited from earlier work.

In general, EC50 refers to the concentration giving half of the maximal effect. For the compound `CCCSc1ccc2nc(NC(=O)OC)[nH]c2c1` [Albendazole], the EC50 in the experiment with C. elegans strain PE254 [1] (72 h) was 200 ± 300 nM; with C. elegans strain PE254 [1] (96 h) it was 800 ± 700 nM; in the experiment on C. elegans strain PE254 [1] (120 h), 900 ± 400 nM; in the experiment with C. elegans strain PE254 [1] (144 h), 800 ± 400 nM; in the experiment with C. elegans strain PE254 [1] (168 h) it was 1100 ± 600 nM; in the experiment with C. elegans, > 10000 nM. For the same compound, the “toxicity (in words)” value in the experiment on C. elegans strain PE254 [2] is listed as “significant toxicity”.
